16 compounds from ChEMBL document CHEMBL1909046, “DrugMatrix in vitro pharmacology data” can be followed below.

The nature of data set [1]: DRUGMATRIX: Calcium Channel Type L, Phenylalkylamine radioligand binding (ligand: [3H] (-)-Desmethoxyverapamil (D-888)). Format: cell membranes, Rattus norvegicus, Wistar, Brain, Membrane. To be noted: Not Active = under 50% inhibition at 10 µM.
In data set [2] the target is T1, Cytochrome P450 1A2 (Homo sapiens, UniProt P05177). Note: in other assays of this panel Not Active means under 50% inhibition at 10 µM.
T1 sequence (P05177 whole entry): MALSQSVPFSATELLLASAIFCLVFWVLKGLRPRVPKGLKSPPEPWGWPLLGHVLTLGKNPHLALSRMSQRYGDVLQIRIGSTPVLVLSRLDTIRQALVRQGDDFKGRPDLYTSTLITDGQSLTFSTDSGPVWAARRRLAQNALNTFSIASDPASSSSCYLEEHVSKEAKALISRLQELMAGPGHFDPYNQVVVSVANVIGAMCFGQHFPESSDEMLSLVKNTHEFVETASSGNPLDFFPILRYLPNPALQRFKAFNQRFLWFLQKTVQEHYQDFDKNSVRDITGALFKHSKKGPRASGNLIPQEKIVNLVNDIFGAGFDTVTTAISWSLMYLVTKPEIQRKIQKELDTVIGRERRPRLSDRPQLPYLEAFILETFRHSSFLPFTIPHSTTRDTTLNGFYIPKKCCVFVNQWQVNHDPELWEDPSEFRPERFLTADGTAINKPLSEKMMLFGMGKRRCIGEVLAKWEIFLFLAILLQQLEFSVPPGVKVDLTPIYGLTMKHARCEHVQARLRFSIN
To be noted: bti-tn-5b1-4.

Data set [3] has as its target T2, Adenosine receptor A3 (Homo sapiens, UniProt P0DMS8).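 Note: radioligand binding assay with AB-MECA serving as the labeled ligand; in other assays of this panel Not Active means under 50% inhibition at 10 µM.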
T2 sequence (P0DMS8 whole entry): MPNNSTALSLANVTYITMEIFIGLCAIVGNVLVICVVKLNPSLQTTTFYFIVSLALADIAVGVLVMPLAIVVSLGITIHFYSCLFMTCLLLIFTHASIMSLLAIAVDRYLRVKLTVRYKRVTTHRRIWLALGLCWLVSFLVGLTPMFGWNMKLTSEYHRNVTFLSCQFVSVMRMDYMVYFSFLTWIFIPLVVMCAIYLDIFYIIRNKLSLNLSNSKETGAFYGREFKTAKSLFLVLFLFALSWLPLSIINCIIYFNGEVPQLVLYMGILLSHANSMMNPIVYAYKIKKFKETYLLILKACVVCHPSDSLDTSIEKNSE
Format: cell membranes, CHO-K1, Membrane.

Data set [4] addresses Cytochrome P450 2C9 (Homo sapiens, UniProt P11712). The note with it: bti-tn-5b1-4.
In data set [5] the target is Beta-3 adrenergic receptor (Homo sapiens, UniProt P13945). In words: DRUGMATRIX: Adrenergic beta3 radioligand binding (ligand: [125I] Cyanopindolol). Format: cell membranes, HEK293, Membrane. To be noted: hek293; Not Active = under 50% inhibition at 10 µM.
Data set [6] addresses Aldo-keto reductase family 1 member B1 (Rattus norvegicus, UniProt P07943). In words: biochemical. The class given is tissue-based, Lens of camera-type eye.

Sequence of Cytochrome P450 2C9 (P11712 whole entry): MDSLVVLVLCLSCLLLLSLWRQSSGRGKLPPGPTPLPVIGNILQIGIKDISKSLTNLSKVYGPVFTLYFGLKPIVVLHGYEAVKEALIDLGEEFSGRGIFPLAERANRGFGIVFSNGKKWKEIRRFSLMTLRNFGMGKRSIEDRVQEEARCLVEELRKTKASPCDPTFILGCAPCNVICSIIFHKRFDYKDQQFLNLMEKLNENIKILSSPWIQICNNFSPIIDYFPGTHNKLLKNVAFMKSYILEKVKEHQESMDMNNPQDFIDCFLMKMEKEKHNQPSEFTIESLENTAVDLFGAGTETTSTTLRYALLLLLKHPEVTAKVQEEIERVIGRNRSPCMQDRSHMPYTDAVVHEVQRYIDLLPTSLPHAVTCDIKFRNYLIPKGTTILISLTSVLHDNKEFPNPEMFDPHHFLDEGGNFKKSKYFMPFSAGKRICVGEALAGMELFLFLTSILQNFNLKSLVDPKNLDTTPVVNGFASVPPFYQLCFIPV
Sequence of Beta-3 adrenergic receptor (P13945 whole entry): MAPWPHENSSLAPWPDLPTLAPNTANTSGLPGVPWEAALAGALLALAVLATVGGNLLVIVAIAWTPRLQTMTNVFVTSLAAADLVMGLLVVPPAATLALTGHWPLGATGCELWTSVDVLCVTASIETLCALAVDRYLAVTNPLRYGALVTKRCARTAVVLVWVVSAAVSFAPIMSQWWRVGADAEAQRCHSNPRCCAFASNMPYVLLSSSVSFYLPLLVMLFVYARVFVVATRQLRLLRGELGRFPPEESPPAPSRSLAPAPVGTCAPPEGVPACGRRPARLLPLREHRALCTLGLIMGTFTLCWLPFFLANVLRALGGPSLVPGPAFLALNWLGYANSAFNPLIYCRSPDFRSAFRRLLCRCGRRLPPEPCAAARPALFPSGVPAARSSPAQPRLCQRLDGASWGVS

For the compound `COc1c(C)c2c(c(O)c1C/C=C(\C)CCC(=O)O)C(=O)OC2` [MYCOPHENOLIC ACID], the IC50 entry in data set [1], in data set [2], in data set [3] (cho-k1), in data set [4], in data set [5] and in data set [6] was “Not Active” in each case. Further, the Ki entry in data set [1], in data set [2] and in data set [4] was “Not Active” in each case.
For `CCCOc1ccccc1-c1nc2nn[nH]c2c(=O)[nH]1` [ZAPRINAST], the IC50 result in data set [1], in data set [2], in data set [3] (cho-k1), in data set [4], in data set [5] and in data set [6] was “Not Active” each time. Besides, the Ki result in data set [1], in data set [2] and in data set [4] was “Not Active” each time.
On to `Nc1nc2nc[nH]c2c(=S)[nH]1` [THIOGUANINE], for which the IC50 result in data set [1] is “Not Active”; in data set [2] it was “Not Active”; in data set [3] (read-out: IC50) it was 21.7 µM; in data set [4], “Not Active”; in data set [5] it was “Not Active”; in data set [6], “Not Active”. Further, the Ki entry in data set [1] was “Not Active”; in data set [2], “Not Active”; in data set [3] (read-out: Ki), 12.3 µM; in data set [4], “Not Active”.
On to `COc1nc(C)nc(Cl)c1NC1=NCCN1` [MOXONIDINE], for which the IC50 entry in data set [1], in data set [2], in data set [3] (cho-k1), in data set [4], in data set [5] and in data set [6] was “Not Active” each time. The inhibitory constant (Ki) entry in data set [1], in data set [2] and in data set [4] was “Not Active” throughout.
Take `O=NN(CCCl)C(=O)NC1CCCCC1` [LOMUSTINE]: the 50% inhibitory concentration (IC50) result in data set [1], in data set [2], in data set [3] (cho-k1), in data set [4], in data set [5] and in data set [6] was “Not Active” each time. Further, the Ki entry in data set [1], in data set [2] and in data set [4] was “Not Active” in each case.
As to `O=c1ncn2nc(Sc3ccc(F)cc3F)ccc2c1-c1c(Cl)cccc1Cl` [NEFLAMAPIMOD], the 50% inhibitory concentration (IC50) entry in data set [1] was “Not Active”; in data set [2], “Not Active”; in data set [3] (read-out: IC50), 8.55 µM; in data set [4] it was “Not Active”; in data set [5] it was “Not Active”; in data set [6], “Not Active”. The Ki entry is “Not Active” in data set [1], “Not Active” in data set [2], 4.83 µM in data set [3] (read-out: Ki) and “Not Active” in data set [4].
For the compound `CC[C@]1(O)C[C@H]2CN(CCc3c([nH]c4ccccc34)[C@@](C(=O)OC)(c3cc4c(cc3OC)N(C=O)[C@H]3[C@@](O)(C(=O)OC)[C@H](OC(C)=O)[C@]5(CC)C=CCN6CC[C@]43[C@@H]65)C2)C1` [VINCRISTINE], the IC50 result in data set [1], in data set [2], in data set [3] (cho-k1), in data set [4], in data set [5] and in data set [6] was “Not Active” each time. Moreover, the Ki result in data set [1], in data set [2] and in data set [4] was “Not Active” in each case.
In the case of `CC(=O)[C@@]1(O)CC[C@H]2[C@@H]3C[C@H](C)C4=CC(=O)CC[C@]4(C)[C@H]3CC[C@@]21C`, the IC50 result in data set [1], in data set [2], in data set [3] (cho-k1), in data set [4], in data set [5] and in data set [6] was “Not Active” each time. The inhibitory constant (Ki) entry in data set [1], in data set [2] and in data set [4] was “Not Active” each time.
With `Cc1noc(NS(=O)(=O)c2ccc(N)cc2)c1C` [SULFISOXAZOLE], the IC50 entry in data set [1], in data set [2], in data set [3] (cho-k1), in data set [4], in data set [5] and in data set [6] was “Not Active” in each case. Moreover, the Ki result in data set [1], in data set [2] and in data set [4] was “Not Active” in each case.
With `N[C@@H](Cc1ccc(O)c(O)c1)C(=O)O` [LEVODOPA], the IC50 result in data set [1], in data set [2], in data set [3] (cho-k1), in data set [4], in data set [5] and in data set [6] was “Not Active” throughout. Moreover, the Ki entry in data set [1], in data set [2] and in data set [4] was “Not Active” throughout.
Consider `NS(=O)(=O)c1cc2c(cc1Cl)NC(C(Cl)Cl)NS2(=O)=O` (centres undefined) [TRICHLORMETHIAZIDE], for which the IC50 result in data set [1], in data set [2], in data set [3] (cho-k1), in data set [4], in data set [5] and in data set [6] was “Not Active” in each case. Also, the Ki result in data set [1], in data set [2] and in data set [4] was “Not Active” in each case.
For `Nc1c2c(nc3ccccc13)CCCC2` [TACRINE], the IC50 entry in data set [1], in data set [2], in data set [3] (cho-k1), in data set [4], in data set [5] and in data set [6] was “Not Active” each time. Further, the Ki entry in data set [1], in data set [2] and in data set [4] was “Not Active” in each case.
For the compound `c1ccc([C@H]2CN3CCSC3=N2)cc1` [LEVAMISOLE], the concentration for half-maximal inhibition (IC50) result in data set [1], in data set [2], in data set [3] (cho-k1), in data set [4], in data set [5] and in data set [6] was “Not Active” in each case. Further, the Ki entry in data set [1], in data set [2] and in data set [4] was “Not Active” throughout.
Take `CC[C@@H](CO)NC(=O)[C@@H]1C=C2c3cccc4[nH]cc(c34)C[C@H]2N(C)C1` [METHYLERGONOVINE]: the IC50 result in data set [1], in data set [2], in data set [3] (cho-k1), in data set [4], in data set [5] and in data set [6] was “Not Active” each time. Also, the Ki entry in data set [1], in data set [2] and in data set [4] was “Not Active” in each case.
In the case of SODIUM NITROPRUSSIDE, the IC50 result in data set [1], in data set [2], in data set [3] (cho-k1), in data set [4], in data set [5] and in data set [6] was “Not Active” in each case. The Ki entry in data set [1], in data set [2], in data set [3] (cho-k1), in data set [4], in data set [5] and in data set [6] was “Not Active” in each case.
Consider `N#CC(C#N)=Cc1ccc(O)c(O)c1` [TYRPHOSTIN 23], for which the IC50 entry in data set [1] is “Not Active”; in data set [2], “Not Active”; in data set [3] (cho-k1) it was “Not Active”; in data set [4] it was “Not Active”; in data set [5], “Not Active”; in data set [6] (read-out: IC50) it was 0.202 µM. Besides, the Ki result in data set [1], in data set [2] and in data set [4] was “Not Active” each time.

A word on the IC50: it is the midpoint of a concentration-inhibition curve. By Ki is commonly meant the equilibrium dissociation constant of an inhibitor or competing ligand from its target.
